From patent publication US10006080B2, “High-selectivity contact activation inhibitor based on infestin-4” (OBSCHESTVO S OGRANICHENNOY OTVETSTVENNOSTYU …, priority 2013, dated 2018)

Experiments:
[1] = tested on: contact-activated coagulation; experiment: APTT test in platelet free plasma of a healthy donor (kaolin-cephalin activation); format: biochemical, human; conditions: for concentration at which the APTT increases nearly four-fold / concentration leading to 2.5-fold increase of APTT: normal plasma
Experimental: The assessment of activity of the polypeptide comprising the sequence of an infestin-4 mutant MutB by its inhibition of the contact-activated coagulation shall be considered further with a reference to FIG. 1. Native infestin-4 and mutants MutB and Mut15 were added into 3 separate samples of platelet free plasma (PFP) of a healthy donor, with subsequent measuring time of contact-activated clotting in the APTT test.
Blood plasma from healthy donors was processed according to standard protocols of blood collection for coagulation assays (Collection, Transport, and Processing of Blood Specimens for Testing Plasma-Based Coagulation Assays and Molecular Hemostasis Assays; Approved Guideline Fifth Edition by Clinical and Laboratory Standards Institute (CLSI) H21-A5 Vol. 28 No. 5). 0.38% sodium citrate was added into blood to block the calcium ions.
The APTT test was administered using the reagent kits “Coagulo-test” (Scientific-production association Renam, Moscow, Russia) and different concentrations of the following contact activation inhibitors: native infestin-4, MutB, and Mut15. To do that, 50 microliters of blood plasma from a healthy donor were mixed with 5.6 microliters of a 10× solution of different inhibitor concentrations and incubated for 15 minutes at 37° C. Then, according to the “Coagulo-test” manual, 25 microliters of the mixture were transferred into the cuvette of the coagulometer Helena-C2, with addition of 25 microliters of kaolin-cephalin mixture activating fXII in blood plasma. After incubation at 37° C. for 3 minutes, 25 microliters of the calcium chloride solution in the initial concentration of 25 mM was added, and the time of fibrin clot formation in the coagulometer cuvette was determined photometrically.
APTT dependences on concentrations of native infestin-4, MutB and Mut15 obtained in the same way as in Example 1, are shown on FIG. 1.

[2] = tested on: TF-initiated fibrin clot growth; experiment: Thrombodynamics analyzer T-2, fibrin clot growth from immobilized TF in normal and hypocoagulant PFP (0.1 IU/ml heparin); format: biochemical, human; conditions: MutB 20 μM, CTI 15 μM; n=4
Experimental: The influence of contact activation inhibitors on coagulation dynamics can be shown on the example of fibrin clot growth from the surface with immobilized TF. The dynamics of fibrin clot growth from the activator can be characterized by the following parameters: delay of clot formation after the contact of plasma with the tissue factor—lag time (Tlag, min); average clot growth velocity within 2-6 minutes after the start of coagulation—initial velocity (Vin, μm/min); and average clot growth velocity within 15-25 minutes after the start of coagulation—stationary velocity (Vst, μm/min) (Balandina et al. 2011, Biophys. J. 101:1816-1824; Dashkevich et at 2012, Biophys. J. 103:2233-2240). The mentioned parameters allow determining the state of blood coagulation of the subjects from whom the test samples were obtained («Practical coagulology», M A Panteleev, S A Vasilyev, E I Sinauridze and co-authors, ed. by A I Vorobyov. Moscow, publishing house «Practical medicine», 2011, 192 pages., ISBN: 978-5-98811-165-8). […]

## MutB: polypeptide comprising the sequence of infestin-4 mutant MutB (SEQ ID NO: 1), inhibition loop TRNFVA; high-selectivity fXIIa inhibitor (EVRNPCACTRNFVAVCGSDGKTYGNPCMLNCAAQTKVPGLKLVHEGRCQRSNVEQF; Infestin-4 mutant MutB)
[1]; 10 μM inhibitor in PFP, 45 sec without inhibitor
  APTT: 120 s
[1]; APTT dose-dependence
  activity in blood plasma in comparison to Mut15: nearly twofold
[1]; APTT dose-dependence, FIG. 1
  activity in blood plasma in comparison with Mut15 and native infestin-4: increased activity
[1]
  concentration at which the APTT increases nearly four-fold: 20 µM
  concentration leading to 2.5-fold increase of APTT: 10 µM
[2]
  influence on the difference of fibrin clot growth dynamics between hypocoagulant and normal plasma: does not have any influence

B1: corn trypsin inhibitor (other, UniProt P01088 29-138, looked up)
chain: SAGTSCVPGWAIPHNPLPSCRWYVTSRTCGIGPRLPWPELKRRCCRELADIPAYCRCTALSILMDGAIPPGPDAQLEGRLEDLPGCPREVQRGFAATLVTEAECNLATIS
notes: Isolated from corn; also called CTI
[1]
  concentration at which the APTT increases nearly four-fold: 15 µM
  concentration leading to 2.5-fold increase of APTT: 5 µM
[2]
  influence on the difference of fibrin clot growth dynamics between hypocoagulant and normal plasma: does not have any influence
